# Source: the supplement of paper PMC4862054
# Values joined by “and” are separate entries in the source; they are usually repeats but may differ in a detail not shown here. Equal entries are not always repeated.
# What was measured:
# Settings in all cases: incubation time: 72 h
# MDA-MB-468 [1] = test: normalised viability (% of control), CellTiter-Blue; higher = more viable cells (100 = DMSO, 0 = benzethonium chloride kill control)
# Method: (§1)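 DSRT, CellTiter-Blue viability, 72 h incubation. Signal is normalised to DMSO and benzethonium chloride controls. Value is the normalised response at dose 1.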
# MFM-223 [2] = test: as above
# Method: as §1
# HCC1599 [3] = test: as above
# Method: as §1
# DU-4475 [4] = test: as above
# Method: as §1
# CAL-51 [5] = test: as above
# Method: as §1
# MDA-MB-231 [6] = test: as above
# Method: as §1
# CAL-120 [7] = test: as above
# Method: as §1
# Hs578T [8] = test: as above
# Method: as §1
# HCC1937 [9] = test: as above
# Method: as §1
# CAL-85-1 [10] = test: as above
# Method: as §1
# MDA-MB-453 [11] = test: as above
# Method: as §1
# HCC1143 [12] = test: as above
# Method: as §1
# SK-BR-3 [13] = test: as above
# Method: as §1
# HDQ-P1 [14] = test: as above
# Method: as §1
# CAL-148 [15] = test: as above
# Method: as §1
# MDA-MB-436 = test: normalised response (% of control), CellTiter-Glo; higher = more viable cells (100 = DMSO, 0 = benzethonium chloride kill control)
# How it was run: (§2)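 Breast cancer cell lines were exposed for 72 h in 384-well plates to compound at 5 concentrations, 10-fold apart, covering a 10,000-fold range fixed for each compound. Plates were read for CellTox Green fluorescence and CellTiter-Glo luminescence and normalised to 0.1 % DMSO (100) and a positive kill control (0). Each value is the normalised signal at one concentration of the series.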
# MDA-MB-468 [16] = test: as above
# How it was run: as §2
# MFM-223 [17] = test: as above
# How it was run: as §2
# HCC1599 [18] = test: as above
# How it was run: as §2
# DU-4475 [19] = test: as above
# How it was run: as §2
# CAL-51 [20] = test: as above
# How it was run: as §2
# MDA-MB-231 [21] = test: as above
# How it was run: as §2
# CAL-120 [22] = test: as above
# How it was run: as §2
# Hs578T [23] = test: as above
# How it was run: as §2
# BT-474 = test: as above
# How it was run: as §2
# HCC1937 [24] = test: as above
# How it was run: as §2
# CAL-85-1 [25] = test: as above
# How it was run: as §2
# MDA-MB-453 [26] = test: as above
# How it was run: as §2
# HCC1143 [27] = test: as above
# How it was run: as §2
# BT-549 = test: as above
# How it was run: as §2
# SK-BR-3 [28] = test: as above
# How it was run: as §2
# HDQ-P1 [29] = test: as above
# How it was run: as §2
# MCF-10A = test: as above
# How it was run: as §2
# CAL-148 [30] = test: as above
# How it was run: as §2
compound,measurement,setting,value
CCCCCOC(=O)Nc1nc(=O)n([C@@H]2O[C@H](C)[C@@H](O)[C@H]2O)cc1F [Capecitabine] (1 nM),normalised viability,MDA-MB-468 [1],106% and 115%
same,normalised viability,MFM-223 [2],88.8% and 95.7%
same,normalised viability,HCC1599 [3],88.8% and 111%
same,normalised viability,DU-4475 [4],108% and 102%
same,normalised viability,CAL-51 [5],106% and 99.2%
same,normalised viability,MDA-MB-231 [6],94.7% and 83.7%
same,normalised viability,CAL-120 [7],85.3% and 96.5%
same,normalised viability,Hs578T [8],105% and 96.7%
same,normalised viability,HCC1937 [9],84.3% and 85%
same,normalised viability,CAL-85-1 [10],86.7% and 109%
same,normalised viability,MDA-MB-453 [11],102% and 97.9%
same,normalised viability,HCC1143 [12],93.5% and 107%
same,normalised viability,SK-BR-3 [13],117% and 92.1%
same,normalised viability,HDQ-P1 [14],85.1% and 91.7%
same,normalised viability,CAL-148 [15],106% and 102%
same,normalised response,MDA-MB-436,88.7%
same,normalised response,MDA-MB-468 [16],103%
same,normalised response,MFM-223 [17],98.2%
same,normalised response,HCC1599 [18],95.5%
same,normalised response,DU-4475 [19],99.7%
same,normalised response,CAL-51 [20],67.8%
same,normalised response,MDA-MB-231 [21],102%
same,normalised response,CAL-120 [22],94.6%
same,normalised response,Hs578T [23],102%
same,normalised response,BT-474,95.2%
same,normalised response,HCC1937 [24],98.2%
same,normalised response,CAL-85-1 [25],96.8%
same,normalised response,MDA-MB-453 [26],113%
same,normalised response,HCC1143 [27],96.8%
same,normalised response,BT-549,107%
same,normalised response,SK-BR-3 [28],110%
same,normalised response,HDQ-P1 [29],102%
same,normalised response,MCF-10A,94.5%
same,normalised response,CAL-148 [30],106%
